Test results from US20100323434A1, “Compartmentalized Nerve Culture System” (priority 2009, published 2010).

How the values were obtained:
[1] = tested on: Dorsal root ganglia (DRG) neuronal cultures; format: cell-based, rats; settings: rat, 24 h, 25 ng/mL
Text: A two-step photolithographic process was utilized to create the master mold. Silicon wafers (University Wafer, MA) were coated with SU-8 2002 (Microchem; MA), spun, and soft baked using parameters specified by the manufacturer to yield a resist thickness of 2.5 microns. An array of microchannels, each with dimensions: width=10 microns, length=500 microns, were defined by UV light exposure through a high resolution DPI transparency (Cad/Art, OR). The exposed substrate was once again baked, to enhance polymer cross-linking post exposure, and developed as stated in the resist technical sheet to fully define the microchannels. […]
In order to identify the susceptibility of axons and cell bodies to paclitaxel, we added 25 ng/mL of paclitaxel to either axon or cell body chambers and continued to culture the DRGs for another 24 hours. Once images of the fluorescently labeled cells and axons were captured, we used ImageJ to calculate axon lengths and calculated percent change in axon length compared to 24 hours before taxol exposure.
Studies on the neuroprotective effect of EPO were performed with concurrent administration of paclitaxel, which was applied to either the neuronal cell body or axonal side. […] Axon degeneration was defined as the change in axon length over the total axon length expressed as a percentage.

[2] = tested on: Primary hippocampal neurons; assay: Oxidative stress by H2O2 added selectively to the somal compartment of the microfluidic device; format: cell-based; settings: added to somal compartment of one group of neuronal cell bodies (2 mM peroxide media); over the course of 24-72 h

| SMILES | decrease in the length of axons [1] [%] | neuronal cell death and axonal degeneration [2] |
| --- | --- | --- |
| CC(=O)O[C@H]1C(=O)[C@@]2(C)[C@H]([C@H](OC(=O)c3ccccc3)[C@]3(O)C[C@H](OC(=O)[C@H](O)[C@@H](NC(=O)c4ccccc4)c4ccccc4)C(C)=C1C3(C)C)[C@]1(OC(C)=O)CO[C@@H]1C[C@@H]2O [paclitaxel, Paclitaxel, reference compound] | 28.6 ± 11.2 |  |
| OO [H2O2] |  | induction of neuronal cell death and accompanying axonal degeneration |
